Measurements: ChEMBL document CHEMBL1122875, “Orally absorbable cephalosporin antibiotics. 3. Preparation of biologically active R isomer of 7-(3-benzothienylglycylamido)deacetoxycephalosporanic acid” (1985)
≈ marks a conversion by molar mass, not a printed value.

What was measured:
Type in all cases: functional
[1] = system: Haemophilus influenzae; assay: The compound was tested for antibacterial activity against resistant Haemophilus influenzae 76.
[2] = system: Staphylococcus aureus; assay: Tested for antibacterial activity against methicillin resistant Staphylococcus aureus S13E.
[3] = system: Staphylococcus aureus; assay: Tested for antibacterial activity against methicillin resistant Staphylococcus aureus X400.
[4] = system: Staphylococcus aureus; assay: Tested for antibacterial activity against penicillin G sensitive Staphylococcus aureus X1.1
[5] = system: Streptococcus pyogenes; assay: The compound was tested for antibacterial activity against Streptococcus pyogenes C203.
[6] = system: Streptococcus pneumoniae; assay: The compound was tested for antibacterial activity against Streptococcus pneumoniae Park.
[7] = system: Streptococcus; assay: The compound was tested for antibacterial activity against Streptococcus group D X66.
[8] = system: Haemophilus influenzae; assay: The compound was tested for antibacterial activity against sensitive Haemophilus influenzae C.L.
[9] = system: Staphylococcus epidermidis; assay: The compound was tested for antibacterial activity against Staphylococcus epidermidis EP11.
[10] = system: Staphylococcus aureus; assay: Tested for antibacterial activity against penicillin G resistant Staphylococcus aureus V41.

## CC1=C(C(=O)O)N2C(=O)C(NC(=O)[C@@H](N)c3csc4ccccc34)C2SC1 (some centres not stated)
[1]
  MIC: 16 µg/mL (≈ 39.7 µM)
[2]
  MIC: 128 µg/mL (≈ 317 µM)
[3]
  MIC: > 128 µg/mL
[4]
  MIC: 32 µg/mL (≈ 79.3 µM)
[5]
  MIC: 16 µg/mL (≈ 39.7 µM)
[6]
  MIC: 16 µg/mL (≈ 39.7 µM)
[7]
  MIC: > 128 µg/mL

## CC1=C(C(=O)O)N2C(=O)C(NC(=O)[C@H](N)c3csc4ccccc34)C2SC1 (some centres not stated)
[1]
  MIC: 1 µg/mL (≈ 2.48 µM)
[8]
  MIC: 2 µg/mL (≈ 4.96 µM)
[9]
  MIC: 4 µg/mL (≈ 9.91 µM)
[2]
  MIC: 4 µg/mL (≈ 9.91 µM)
[3]
  MIC: 32 µg/mL (≈ 79.3 µM)
[10]
  MIC: 4 µg/mL (≈ 9.91 µM)
[4]
  MIC: 1 µg/mL (≈ 2.48 µM)
[5]
  MIC: 0.5 µg/mL (≈ 1.24 µM)
[6]
  MIC: 0.5 µg/mL (≈ 1.24 µM)
[7]
  MIC: 128 µg/mL (≈ 317 µM)

## CC1=C(C(=O)O)N2C(=O)C(NC(=O)C(N)c3csc4ccccc34)C2SC1 (configuration not stated)
[1]
  MIC: 2 µg/mL (≈ 4.96 µM)
[8]
  MIC: 4 µg/mL (≈ 9.91 µM)
[9]
  MIC: 4 µg/mL (≈ 9.91 µM)
[2]
  MIC: 16 µg/mL (≈ 39.7 µM)
[10]
  MIC: 8 µg/mL (≈ 19.8 µM)
[4]
  MIC: 2 µg/mL (≈ 4.96 µM)
[5]
  MIC: 2 µg/mL (≈ 4.96 µM)
[6]
  MIC: 4 µg/mL (≈ 9.91 µM)
[7]
  MIC: > 128 µg/mL

## CC1=C(C(=O)O)N2C(=O)[C@@H](NC(=O)[C@H](N)c3ccccc3)[C@H]2SC1 [CEPHALEXIN ANHYDROUS]
[1]
  MIC: 8 µg/mL (≈ 23 µM)
[8]
  MIC: 8 µg/mL (≈ 23 µM)
[9]
  MIC: 32 µg/mL (≈ 92.1 µM)
[4]
  MIC: 4 µg/mL (≈ 11.5 µM)
[5]
  MIC: 0.5 µg/mL (≈ 1.44 µM)
[6]
  MIC: 2 µg/mL (≈ 5.76 µM)
